18 compounds from patent US7390925B2, “Oxime-containing acyl guanidines as beta-secretase inhibitors” (Bristol-Myers Squibb Company, priority 2006, dated 2008) can be followed below.

T1 sequence (P56817 46-501): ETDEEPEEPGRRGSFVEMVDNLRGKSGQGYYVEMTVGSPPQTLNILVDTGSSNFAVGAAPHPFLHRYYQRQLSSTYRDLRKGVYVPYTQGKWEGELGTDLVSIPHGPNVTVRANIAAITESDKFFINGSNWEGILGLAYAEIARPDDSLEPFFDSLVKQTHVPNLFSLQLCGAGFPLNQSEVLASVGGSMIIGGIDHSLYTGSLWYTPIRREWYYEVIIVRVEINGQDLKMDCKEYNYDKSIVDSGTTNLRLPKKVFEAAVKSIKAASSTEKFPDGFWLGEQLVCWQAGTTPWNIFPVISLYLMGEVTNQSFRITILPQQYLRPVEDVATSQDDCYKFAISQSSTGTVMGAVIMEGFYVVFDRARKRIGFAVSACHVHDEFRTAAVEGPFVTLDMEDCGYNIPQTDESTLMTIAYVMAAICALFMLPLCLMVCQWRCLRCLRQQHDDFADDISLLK

This test concerns the target T1, BACE1 enzyme (Homo sapiens, UniProt P56817).
T1 construct: derived from HEK293 cells (Simmons, N. L. (1990)); endogenous in cells; washed 48,000 x g pellet of cell homogenate
The test can be described thus: Radioligand displacement assay with a radiolabeled BACE inhibitor on HEK293-9B.A1 cell homogenate. The class given is binding. Conditions: displacement of 1 nM radioligand, HEK293-9B.A1 homogenate, pH 5.0, 1.5 hr at 25° C.; read-out: Activity Rating (activity based on IC50 values). From the text:
There are a number of methods by which inhibitors of the BACE enzyme can be identified experimentally. The enzyme can be obtained from membrane samples from natural tissues or cultured cells or can be expressed recombinantly in a host cell by well known methods of molecular biology. The whole enzyme or a portion thereof can be expressed, for example, in bacterial, insect or mammalian cells to obtain a catalytically active enzyme species. The enzymatic activity and/or ligand binding capability of the enzyme can be assessed within these membrane samples, or the enzyme can be purified to varying extents. As an illustrative example, the nucleic acid sequence encoding the pro and catalytic domains of human BACE can be appended on the 5′ end with an untranslated and signal sequence from the gene for acetylcholinesterase, and on the 3′ end with a sequence encoding a poly-histidine tag. This cDNA can then be expressed in Drosophila melanogaster S2 cells in which the signal and pro sequences of the transcribed/translated protein are removed by cellular proteases and the catalytic domain, appended by a C-terminal poly-histidine tag, is secreted out into the cellular medium. The enzyme can then be purified from the culture medium by nickel affinity chromatography by methods well known to those trained in the art [Mallender, W. et al., (2001) “Characterization of recombinant, soluble beta-secretase from an insect cell expression system.” Mol. Pharmacol. 59: 619-626]. Similar strategies for expressing and purifying various forms of BACE in bacterial, mammalian and other cell types would be known to one skilled in the art. A preferred method for determining the potency of a test compound in binding to the BACE enzyme is by monitoring the displacement of a suitable radioligand.
Radioligand displacement assays with a radiolabeled BACE inhibitor (WO 2004 013098, compound 3, where the methoxy group is substituted for C(^3H)3) were carried out using standard methods (Keen, M. (1999) in Receptor Binding Techniques (Walker, J. M. ed) p. 106 Humana Press, Totowa, N. J.). The HEK293-9B.A1 cell line, which overexpresses the BACE1 enzyme, was derived from HEK293 cells (Simmons, N. L. (1990) A cultured human renal epithelioid cell line responsive to vasoactive intestinal peptide. Exp. Physiol. 75:309-19.) by RAGE™ (Harrington, J. J. et al. (2001) Creation of genome-wide protein expression libraries using random activation of gene expression. Nat. Biotechnol. 19:440-5.; U.S. Pat. Nos. 6,410,266 and 6,361,972). T225 flask cultures of HEK293-9B.A1 were grown to 80% confluency in DMEM supplemented with 2 mM L-glutamine, 10 μg/ml penicillin, 10 μg/ml streptomycin, 3 μg/ml puromycin, 100 nM methotrexate, and 10% fetal bovine serum (Invitrogen, Carlsbad, Calif.), harvested, and resuspended at 2×10^8 cells per 10 ml of lysis buffer consisting of 50 mM HEPES pH 7.0 containing a protease inhibitor cocktail of AEBSF 104 μM, aprotinin 80 nM, leupeptin 2 μM, bestatin 4 μM, pepstatin A 1.5 μM, and E-64 1.4 μM (0.1% of protease inhibitor cocktail P8340, Sigma-Aldrich, St. Louis, Mo.) at 4° C. The resuspended cells were homogenized using a Polytron (Brinkman, Westbury, N.Y.) at setting 6 for 10 sec., then centrifuged at 48,000×g for 10 min. The resulting pellet was washed by repeating the resuspension, homogenization and centrifugation steps. The final pellet was resuspended in buffer at 4° C. to yield a total protein concentration of 5 mg/ml, then aliquots were frozen in liquid nitrogen for further storage at −70° C. Immediately before carrying out a binding assay, an aliquot of cell homogenate was thawed and diluted to a concentration of 100 μg/ml in assay buffer consisting of 50 mM HEPES pH 5.0 and 0.1% CHAPSO. […]
Consider `CON=C(CC(=O)/N=C(\N)Cc1cc(Cl)c(NC(C)=O)c(Cl)c1)c1ccc(OC)cc1` [Example 1, N-(2-(4-Acetamido-3,5-dichlorophenyl)-1-aminoethylidene)-3-(methoxyimino)-3-(4-methoxyphenyl)propanamide], for which the IC50 was under 100 nM. Turning to `COc1ccc(C(CC(=O)N=C(N)NCc2cc(Cl)c(NC(C)=O)c(Cl)c2)=NOCC(C)C)cc1` [Example 18, N-((4-acetamido-3,5-dichlorobenzylamino)(amino)-methylene)-3-(isobutoxyimino)-3-(4-methoxyphenyl)propanamide], the IC50 was in the range of 100 to 1000 nM. The value for `COc1ccc(C(CC(=O)/N=C(\N)NCc2cc(Cl)c(N)c(Cl)c2)=NOCC(C)C)cc1` [Example 19, N-((4-amino-3,5-dichlorobenzylamino)(amino)methylene)-3-(isobutoxyimino)-3-(4-methoxyphenyl)propanamide] was over 1000 nM; that for `CON=C(CC(=O)/N=C(\N)NCc1cc(Cl)c(N)c(Cl)c1)c1c[nH]c2ccccc12` [Example 20, N-((4-amino-3,5-dichlorobenzylamino)(amino)methylene)-3-(1H-indol-3-yl)-3-(methoxyimino)propanamide] was 100 to 1000 nM. The value for `CON=C(CC(=O)/N=C(\N)NCc1cc(Cl)c(NC(C)=O)c(Cl)c1)c1c[nH]c2ccccc12` [Example 21, N-((4-acetamido-3,5-dichlorobenzylamino)(amino)methylene)-3-(1H-indol-3-yl)-3-(methoxyimino)propanamide] was under 100 nM; that for `CON=C(CC(=O)/N=C(\N)NCc1cc(C)c(C(=O)CN(C)C)c(Cl)c1)c1c[nH]c2ccccc12` [Example 22, N-((3-chloro-4-(2-(dimethylamino)acetyl)-5-methylbenzylamino)(amino)-methylene)-3-(1H-indol-3-yl)-3-(methoxyimino)propanamide] was 100 to 1000 nM; that for “N-(1-Amino-2-(3,5-dichlorophenyl)ethylidene)-3-(methoxyimino)-3-(4-methoxyphenyl)propanamide [Example 3]” was over 1000 nM. For “N-(1-Amino-2-(3-chloro-4-(2-(dimethylamino)acetamido)-5-methylphenyl)-ethylidene)-3-(methoxyimino)-3-(4-methoxyphenyl)propanamide [Example 4]”, the half-inhibitory concentration (IC50) lay in the range of 100 to 1000 nM. Under “N-(1-Amino-2-(4-amino-3,5-dichlorophenyl)ethylidene)-3-(ethoxyimino)-3-(4-methoxyphenyl)propanamide [Example 6]” stands 100 to 1000 nM; under “N-(1-Amino-2-(4-amino-3,5-dichlorophenyl)ethylidene)-3-(methoxyimino)-3-(2-methoxyphenyl)propanamide [Example 13]”, over 1000 nM. Under “N-(1-Amino-2-(4-amino-3,5-dichlorophenyl)ethylidene)-3-(methoxyimino)-3-(4-methoxyphenyl)propanamide [Example 2]” stands 100 to 1000 nM; under “N-(1-Amino-2-(4-amino-3,5-dichlorophenyl)ethylidene)-3-(methoxyimino)-3-(4-nitrophenyl)propanamide [Example 17]”, 100 to 1000 nM. With “N-(1-Amino-2-(4-amino-3,5-dichlorophenyl)ethylidene)-3-(methoxyimino)-3-phenylpropanamide [Example 9]”, the IC50 is 100 to 1000 nM. Consider “N-(2-(4-Acetamido-3,5-dichlorophenyl)-1-aminoethylidene)-3-(4-fluorophenyl)-3-(methoxyimino)propanamide [Example 15]”, for which the half-maximal inhibitory concentration (IC50) was under 100 nM. For the compound “N-(2-(4-Acetamido-3,5-dichlorophenyl)-1-aminoethylidene)-3-(4-nitrophenyl)-3-(methoxyimino)propanamide [Example 16]”, the IC50 is under 100 nM. As to “N-(2-(4-Acetamido-3,5-dichlorophenyl)-1-aminoethylidene)-3-(ethoxyimino)-3-(4-methoxyphenyl)propanamide [Example 5]”, the IC50 was under 100 nM. Under “N-(2-(4-Acetamido-3,5-dichlorophenyl)-1-aminoethylidene)-3-(methoxyimino)-3-(2-methoxyphenyl)propanamide [Example 12]” stands 100 to 1000 nM; under “N-(2-(4-Acetamido-3,5-dichlorophenyl)-1-aminoethylidene)-3-(methoxyimino)-3-(3-methoxyphenyl)propanamide [Example 11]”, 100 to 1000 nM.
